Assay results published in patent publication US12410156B2, “Kinase inhibitors” (Insilico Medicine IP Limited, priority 2019, dated 2025).

Experiments:
[1] = test system: Human hepatic stellate cell LX-2; assay: LX-2 fibrosis assay, collagen production (Western blot); type: cell-based; conditions: LX-2 cells, stimulated with 4 ng/mL TGF-b for 48 hours
Procedure: Human hepatic stellate cell LX-2 were grown in DMEM (Invitrogen, 11960) supplied with 1% MEM Non-Essential Amino Acids (Invitrogen, 11140-050), 2% fetal bovine serum (Hyclone, SV30087.03), Penicillin (100 U/mL)-streptomycin (100 μg/mL) (Millipore, TMS-AB2-C) and 2 mM L-Glutamine (Invitrogen, 25030-001). After the cells grew in 12-well plates for 24 hours, the cell culture medium was changed to the same as above except using 0.4% fetal bovine serum. After 20 hour growth in the reduced serum medium, the cells were treated with indicated doses of compounds for 30 minutes. Subsequently, the cells were stimulated with 4 ng/mL TGF-b (R&D Systems, 240-B-002) for 48 hours. The cells were rinsed twice with DPBS before being harvested with 100 μL RIPA buffer (Sigma, R0278) supplemented with protease inhibitor cocktail (Roche, 04693132001) at 4° C. The total protein in each sample was quantified using BCA Protein Assay Kit (Pierce™, 23227) and equal amount of total protein of each sample was subject to Western blot analysis. Antibodies used were mouse anti-α-Actin (SPM332) ([…]), mouse anti-CTGF (E5) (sc-365970), and mouse anti-collagen α1 (3G3) (sc-293182), from Santa Cruz Biotechnologies; and mouse anti-GAPDH (6C5) (EMD Millipore, MAB374).

[2] = target: T1, TNIK (Homo sapiens, UniProt Q9UKE5); assay: TNIK enzymatic assay (radiometric 33P-ATP filter assay); type: biochemical; conditions: second table (TNIK, MAP4K4, Collagen Production Data); read-out: TNIK_IC50
T1 construct: purchased Eurofins (Kinase Profiler service protocol)
Procedure: The compounds were studied for function as TNIK inhibitors to generate the data of Table 1. […] (specific activity and concentration as required). The reaction is initiated by the addition of the Mg/ATP mix. After incubation for 40 minutes at room temperature, the reaction is stopped by the addition of phosphoric acid to a concentration of 0.5%.

[3] = target: MAP4K4 (h) (Homo sapiens, UniProt O95819); assay: MAP4K4 kinase assay (radiometric 33P-ATP filter assay); type: biochemical; conditions: read-out: MAP4K4_IC50
Procedure: (specific activity and concentration as required). The reaction is initiated by the addition of the Mg/ATP mix. After incubation for 40 minutes at room temperature, the reaction is stopped by the addition of phosphoric acid to a concentration of 0.5%.

Chain of MAP4K4 (h) (O95819 whole entry): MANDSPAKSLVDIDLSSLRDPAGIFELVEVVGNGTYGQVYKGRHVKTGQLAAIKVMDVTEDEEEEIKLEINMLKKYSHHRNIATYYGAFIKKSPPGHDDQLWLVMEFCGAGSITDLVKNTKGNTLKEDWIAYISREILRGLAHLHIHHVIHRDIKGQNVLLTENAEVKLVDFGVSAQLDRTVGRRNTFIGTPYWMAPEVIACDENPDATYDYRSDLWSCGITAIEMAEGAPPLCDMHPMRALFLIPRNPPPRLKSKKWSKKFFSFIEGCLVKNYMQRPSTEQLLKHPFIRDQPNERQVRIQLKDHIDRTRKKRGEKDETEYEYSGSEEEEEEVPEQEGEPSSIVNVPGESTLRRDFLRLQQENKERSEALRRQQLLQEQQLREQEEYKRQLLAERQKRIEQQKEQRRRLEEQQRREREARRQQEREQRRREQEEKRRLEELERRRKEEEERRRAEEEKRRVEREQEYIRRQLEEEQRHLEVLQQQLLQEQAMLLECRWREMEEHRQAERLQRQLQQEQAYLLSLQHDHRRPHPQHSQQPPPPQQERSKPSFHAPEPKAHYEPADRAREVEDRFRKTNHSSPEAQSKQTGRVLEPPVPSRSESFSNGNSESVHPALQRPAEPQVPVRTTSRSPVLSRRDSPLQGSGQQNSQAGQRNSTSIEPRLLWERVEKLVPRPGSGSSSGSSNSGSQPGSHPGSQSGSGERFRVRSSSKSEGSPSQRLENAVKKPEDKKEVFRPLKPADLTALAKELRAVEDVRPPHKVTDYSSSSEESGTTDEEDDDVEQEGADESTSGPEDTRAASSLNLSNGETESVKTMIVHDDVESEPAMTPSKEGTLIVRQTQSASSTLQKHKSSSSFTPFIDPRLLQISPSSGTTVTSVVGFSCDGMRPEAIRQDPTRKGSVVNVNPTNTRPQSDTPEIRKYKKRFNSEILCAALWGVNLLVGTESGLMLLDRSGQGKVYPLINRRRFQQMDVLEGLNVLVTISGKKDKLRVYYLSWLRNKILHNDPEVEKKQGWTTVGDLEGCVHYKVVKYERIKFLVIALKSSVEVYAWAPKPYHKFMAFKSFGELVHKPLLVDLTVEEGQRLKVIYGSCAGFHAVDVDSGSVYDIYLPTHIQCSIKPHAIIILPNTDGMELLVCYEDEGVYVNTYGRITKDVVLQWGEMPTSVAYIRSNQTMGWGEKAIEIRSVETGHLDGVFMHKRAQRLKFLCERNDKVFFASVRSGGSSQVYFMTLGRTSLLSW
T1 sequence (Q9UKE5 whole entry): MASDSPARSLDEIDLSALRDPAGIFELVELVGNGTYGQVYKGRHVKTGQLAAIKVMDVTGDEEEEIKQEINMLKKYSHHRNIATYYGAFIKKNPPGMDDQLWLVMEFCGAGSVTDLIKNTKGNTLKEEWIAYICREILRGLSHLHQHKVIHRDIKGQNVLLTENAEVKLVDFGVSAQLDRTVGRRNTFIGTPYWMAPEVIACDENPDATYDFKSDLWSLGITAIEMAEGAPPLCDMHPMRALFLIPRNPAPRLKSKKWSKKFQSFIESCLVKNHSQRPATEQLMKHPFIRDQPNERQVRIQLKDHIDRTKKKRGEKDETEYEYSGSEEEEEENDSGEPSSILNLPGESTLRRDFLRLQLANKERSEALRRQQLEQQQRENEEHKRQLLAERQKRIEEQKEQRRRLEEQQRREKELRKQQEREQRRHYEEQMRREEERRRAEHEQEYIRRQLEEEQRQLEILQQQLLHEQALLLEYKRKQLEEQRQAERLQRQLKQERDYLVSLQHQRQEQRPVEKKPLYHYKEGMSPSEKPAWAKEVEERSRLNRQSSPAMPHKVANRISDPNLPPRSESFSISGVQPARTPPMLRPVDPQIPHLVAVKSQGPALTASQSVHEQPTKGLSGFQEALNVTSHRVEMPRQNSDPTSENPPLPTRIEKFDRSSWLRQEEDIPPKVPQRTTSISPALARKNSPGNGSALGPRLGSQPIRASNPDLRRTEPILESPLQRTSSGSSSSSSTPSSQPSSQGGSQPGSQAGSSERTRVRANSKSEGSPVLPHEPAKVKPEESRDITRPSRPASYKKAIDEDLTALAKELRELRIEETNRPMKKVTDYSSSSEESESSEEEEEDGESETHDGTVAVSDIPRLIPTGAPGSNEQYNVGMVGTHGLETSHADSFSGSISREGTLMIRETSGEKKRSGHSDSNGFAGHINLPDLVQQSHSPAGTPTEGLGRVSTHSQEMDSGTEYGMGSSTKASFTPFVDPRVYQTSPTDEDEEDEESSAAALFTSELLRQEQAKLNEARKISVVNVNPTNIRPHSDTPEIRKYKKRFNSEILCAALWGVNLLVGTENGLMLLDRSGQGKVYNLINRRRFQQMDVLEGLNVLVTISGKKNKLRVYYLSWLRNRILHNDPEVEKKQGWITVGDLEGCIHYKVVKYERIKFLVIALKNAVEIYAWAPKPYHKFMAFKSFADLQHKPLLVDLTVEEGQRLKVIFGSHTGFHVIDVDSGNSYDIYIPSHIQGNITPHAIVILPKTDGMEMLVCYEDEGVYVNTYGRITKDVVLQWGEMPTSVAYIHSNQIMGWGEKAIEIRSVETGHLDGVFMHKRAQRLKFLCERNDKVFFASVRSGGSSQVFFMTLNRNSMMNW

EC50 ([1]; LX-2, 48 h) | IC50 [2] | IC50 [3] | SMILES | EC50 [1]
 |  |  | CN1CCN(c2ccc(NC(=O)c3ccc(-c4c(-c5ccc(F)cc5)ncn4C4CCCC4)o3)c(F)c2)CC1 [Compound A-52, 4-(4-(5-(1-cyclopentyl-4-(4-fluorophenyl)-1H-imidazol-5-yl)furan-2-carboxamido)-3-fluorophenyl)-1-methylpiperazin-1-ium] | 0.042 µM
1.98 µM |  |  | O=C(Nc1ccncc1F)c1ccc(-c2c(-c3ccc(F)cc3)ncn2C2COCC2F)o1 (centres unmarked) [Compound A-53, 5-(4-(4-fluorophenyl)-1-(4-fluorotetrahydrofuran-3-yl)-1H-imidazol-5-yl)-N-(3-fluoropyridin-4-yl)furan-2-carboxamide] | 
0.983 µM | 60.7 nM | 36.6 nM | O=C(Nc1ccncc1F)c1ccc(-c2c(-c3ccc(F)cc3)ncn2[C@@H]2COC[C@H]2F)o1 (racemic) [Compound A-54, rac-5-(4-(4-fluorophenyl)-1-((3R,4S)-4-fluorotetrahydrofuran-3-yl)-1H-imidazol-5-yl)-N-(3-fluoropyridin-4-yl)furan-2-carboxamide] | 
